Measurements: patent publication US8592174B2, “Peptidase substrates” (bioMérieux, S.A., priority 2009, dated 2013)

Key:
Type in all cases: cell-based
Details in all cases: 75 mg/l, 48 h 37° C.
[1] = tested on: Serratia marcescens 7303004; test: Peptidase detection on Columbia medium (Example 5)
Method: (§1) After homogenization, the media were distributed into Petri dishes 55 mm in diameter. A medium acting as a growth control (Columbia) and denoted C was also poured.
(§2) Twenty-two strains of microorganisms were inoculated with a 10 μl calibrated loop according to the three-quadrant streaking method using bacterial suspensions at 0.5 McFarland.

[2] = tested on: Pseudomonas aeruginosa 0001001; test: Peptidase detection on Columbia medium (Example 5); also: key: +++: good growth/high coloration strength; ++: medium growth/medium coloration strength; +: weak growth/weak coloration strength; −: no growth/no coloration
Method: as §1, §2

[3] = tested on: Morganella morganii 9207053; test: Peptidase detection on Columbia medium (Example 5); also: key: +++: good growth/high coloration strength; ++: medium growth/medium coloration strength; +: weak growth/weak coloration strength; −: no growth/no coloration
Method: as §1, §2

[4] = tested on: Klebsiella pneumoniae 0008009; test: Peptidase detection on Columbia medium (Example 5); also: key: +++: good growth/high coloration strength; ++: medium growth/medium coloration strength; +: weak growth/weak coloration strength; −: no growth/no coloration
Method: as §1, §2

[5] = tested on: Acinetobacter baumannii 0604029; test: Peptidase detection on Columbia medium (Example 5); also: key: +++: good growth/high coloration strength; ++: medium growth/medium coloration strength; +: weak growth/weak coloration strength; −: no growth/no coloration
Method: as §1, §2

[6] = tested on: MRSA 0303033; test: Peptidase detection on Columbia medium (Example 5)
Method: as §1, §2

[7] = tested on: Listeria monocytogenes 8812049; test: Peptidase detection on Columbia medium (Example 5)
Method: as §1, §2

[8] = tested on: Escherichia coli 0002005; test: Peptidase detection on Columbia medium (Example 5)
Method: as §1, §2

[9] = tested on: Salmonella ser. Typhimurium 0801029; test: Peptidase detection on Columbia medium (Example 5)
Method: as §1, §2

[10] = tested on: Enterobacter cloacae 0604040; test: Peptidase detection on Columbia medium (Example 5)
Method: as §1, §2

[11] = tested on: Staphylococcus epidermidis 0203050; test: Peptidase detection on Columbia medium (Example 5)
Method: as §1, §2

[12] = tested on: Candida glabrata 0408083; test: Peptidase detection on Columbia medium (Example 5)
Method: as §1, §2

[13] = tested on: Providencia rettgeri 0706064; test: Peptidase detection on Columbia medium (Example 5)
Method: as §1, §2

[14] = tested on: Streptococcus pyogenes 9806380; test: Peptidase detection on Columbia medium (Example 5)
Method: as §1, §2

[15] = tested on: Yersinia enterocolitica 7605019; test: Peptidase detection on Columbia medium (Example 5)
Method: as §1, §2

[16] = tested on: Enterococcus faecium 0610021; test: Peptidase detection on Columbia medium (Example 5)
Method: as §1, §2

[17] = tested on: Bacillus subtilis 0204038; test: Peptidase detection on Columbia medium (Example 5)
Method: as §1, §2

[18] = tested on: Enterococcus faecalis 0008192; test: Peptidase detection on Columbia medium (Example 5)
Method: as §1, §2

[19] = tested on: Staphylococcus aureus 7811049; test: Peptidase detection on Columbia medium (Example 5)
Method: as §1, §2

[20] = tested on: Burkholderia cepacia 7507032; test: Peptidase detection on Columbia medium (Example 5)
Method: as §1, §2

[21] = tested on: Candida albicans 0801025; test: Peptidase detection on Columbia medium (Example 5)
Method: as §1, §2

[22] = tested on: Citrobacter freundii 0006197; test: Peptidase detection on Columbia medium (Example 5)
Method: as §1, §2

[23] = tested on: Morganella morganii 9207053; test: Peptidase detection on Columbia medium (Example 3)
Text: (§3) A medium serving as a growth control (Columbia) and denoted C was also poured.

[24] = tested on: Klebsiella pneumoniae 0008009; test: Peptidase detection on Columbia medium (Example 3)
Text: as §3

[25] = tested on: Acinetobacter baumannii 0604029; test: Peptidase detection on Columbia medium (Example 3)
Text: as §3

[26] = tested on: MRSA 0303033; test: Peptidase detection on Columbia medium (Example 3)
Text: as §3

[27] = tested on: Listeria monocytogenes 8812049; test: Peptidase detection on Columbia medium (Example 3)
Text: as §3

[28] = tested on: Escherichia coli 0002005; test: Peptidase detection on Columbia medium (Example 3)
Text: as §3

[29] = tested on: Salmonella ser. Typhimurium 0801029; test: Peptidase detection on Columbia medium (Example 3)
Text: as §3

[30] = tested on: Enterobacter cloacae 0604040; test: Peptidase detection on Columbia medium (Example 3)
Text: as §3

[31] = tested on: Staphylococcus epidermidis 0203050; test: Peptidase detection on Columbia medium (Example 3)
Text: as §3

[32] = tested on: Candida glabrata 0408083; test: Peptidase detection on Columbia medium (Example 3)
Text: as §3

[33] = tested on: Providencia rettgeri 0706064; test: Peptidase detection on Columbia medium (Example 3)
Text: as §3

[34] = tested on: Streptococcus pyogenes 9806380; test: Peptidase detection on Columbia medium (Example 3)
Text: as §3

[35] = tested on: Yersinia enterocolitica 7605019; test: Peptidase detection on Columbia medium (Example 3)
Text: as §3

[36] = tested on: Enterococcus faecium 0610021; test: Peptidase detection on Columbia medium (Example 3)
Text: as §3

[37] = tested on: Bacillus subtilis 0204038; test: Peptidase detection on Columbia medium (Example 3)
Text: as §3

[38] = tested on: Enterococcus faecalis 0008192; test: Peptidase detection on Columbia medium (Example 3)
Text: as §3

[39] = tested on: Staphylococcus aureus 7811049; test: Peptidase detection on Columbia medium (Example 3)
Text: as §3

[40] = tested on: Burkholderia cepacia 7507032; test: Peptidase detection on Columbia medium (Example 3)
Text: as §3

[41] = tested on: Candida albicans 0801025; test: Peptidase detection on Columbia medium (Example 3)
Text: as §3

[42] = tested on: Citrobacter freundii 0006197; test: Peptidase detection on Columbia medium (Example 3)
Text: as §3

[43] = tested on: Serratia marcescens 7303004; test: Peptidase detection on Columbia medium (Example 3); design: Coloration strength: key: +++: good growth/high coloration strength; ++: medium growth/medium coloration strength; +: weak growth/weak coloration strength; −: no growth/no coloration
Text: as §3

[44] = tested on: Pseudomonas aeruginosa 0001001; test: Peptidase detection on Columbia medium (Example 3); design: Coloration strength: key: +++: good growth/high coloration strength; ++: medium growth/medium coloration strength; +: weak growth/weak coloration strength; −: no growth/no coloration
Text: as §3

C[C@H](N)C(=O)Nc1ccc(C=Cc2ccc3ccccc3[n+]2C)cc1.Cl.[Cl-] [L-alanyl-2-(4′-amidostyryl)-N-methylquinolinium (dichloride)]
Color [1]: orange | Coloration strength [1]: + | Growth ([1]; control C: ++): ++ | Coloration strength [2]: − | Growth ([2]; control C: ++): ++ | Coloration strength [3]: − | Growth ([3]; control C: ++): ++ | Coloration strength [4]: − | Growth ([4]; control C: ++): ++ | Coloration strength [5]: − | Growth ([5]; control C: ++): ++ | Color [6]: orange | Coloration strength [6]: + | Growth ([6]; control C: ++): ++ | Color [7]: orange | Coloration strength [7]: + | Growth ([7]; control C: +): + | Coloration strength [8]: − | Growth ([8]; control C: ++): ++ | Coloration strength [9]: − | Growth ([9]; control C: ++): ++ | Coloration strength [10]: − | Growth ([10]; control C: ++): ++ | Color [11]: orange | Coloration strength [11]: + | Growth ([11]; control C: ++): ++ | Coloration strength [12]: − | Growth ([12]; control C: +): + | Coloration strength [13]: − | Growth ([13]; control C: ++): ++ | Coloration strength [14]: − | Growth ([14]; control C: +): + | Coloration strength [15]: − | Growth ([15]; control C: +): + | Color [16]: orange | Coloration strength [16]: + | Growth ([16]; control C: +): + | Color [17]: orange | Coloration strength [17]: + | Growth ([17]; control C: ++): ++ | Color [18]: orange | Coloration strength [18]: + | Growth ([18]; control C: +): + | Coloration strength [19]: − | Growth ([19]; control C: ++): ++ | Coloration strength [20]: − | Growth ([20]; control C: ++): ++ | Coloration strength [21]: − | Growth ([21]; control C: ++): ++ | Coloration strength [22]: − | Growth ([22]; control C: ++): ++

Cc1cc(C=Cc2ccc(NC(=O)[C@@H]3CCC(=O)N3)cc2)c2ccccc2[n+]1C.[I-] [pyroglutamyl-4-(4′-amidostyryl)-N-methylquinaldinium iodide]
Coloration strength [23]: − | Growth ([23]; control C: +++): +++ | Coloration strength [24]: − | Growth ([24]; control C: +++): +++ | Coloration strength [25]: − | Growth ([25]; control C: +++): +++ | Coloration strength [26]: − | Growth ([26]; control C: +++): ++ | Coloration strength [27]: − | Growth ([27]; control C: ++): ++ | Coloration strength [28]: − | Growth ([28]; control C: +++): +++ | Coloration strength [29]: − | Growth ([29]; control C: +++): +++ | Coloration strength [30]: − | Growth ([30]; control C: +++): +++ | Coloration strength [31]: − | Growth ([31]; control C: ++): − | Coloration strength [32]: − | Growth ([32]; control C: +): − | Coloration strength [33]: − | Growth ([33]; control C: +++): +++ | Coloration strength [34]: − | Growth ([34]; control C: −): − | Coloration strength [35]: − | Growth ([35]; control C: ++): + | Coloration strength [36]: − | Growth ([36]; control C: ++): ++ | Coloration strength [37]: − | Growth ([37]; control C: +++): − | Coloration strength [38]: − | Growth ([38]; control C: ++): ++ | Coloration strength [39]: − | Growth ([39]; control C: ++): ++ | Coloration strength [40]: − | Growth ([40]; control C: ++): ++ | Coloration strength [41]: − | Growth ([41]; control C: ++): + | Coloration strength [42]: − | Growth ([42]; control C: +++): +++ | Coloration strength [43]: ++ | Growth ([43]; control C: +++): +++ | Color [44]: Orangey-red | Coloration strength [44]: +++ | Growth ([44]; control C: +++): +++
